{"source": "patent US20260027116A1", "about": "“Methods of Treating Chronic Graft-Versus-Host Disease Following Allogeneic Hematopoietic Stem Cell Transplantation” (Kadmon Corporation, LLC, priority 2022, published 2026)", "test_system": "patients with cGVHD", "conditions": "Cohort 2 200 mg BID", "data": [{"smiles": "CC(C)NC(=O)COc1cccc(-c2nc(Nc3ccc4[nH]ncc4c3)c3ccccc3n2)c1", "note": "[Belumosudil, 2-{3-[4-(1H-indazol-5-ylamino)-2-quinazolinyl]phenoxy}-N-(propan-2-yl) acetamide]", "values": [{"measurement": "Bronchoscopy: # Events", "result": 0}, {"measurement": "Bronchoscopy: Affected/At Risk (%)", "result": "0/16 (0%)"}, {"measurement": "Catheter site haemorrhage: # Events", "result": 0}, {"measurement": "Catheter site haemorrhage: Affected/At Risk (%)", "result": "0/16 (0%)"}, {"measurement": "Chills: # Events", "result": 1}, {"measurement": "Chills: Affected/At Risk (%)", "result": "1/16 (6.25%)"}, {"measurement": "Chronic kidney disease: # Events", "result": 0}, {"measurement": "Chronic kidney disease: Affected/At Risk (%)", "result": "0/16 (0%)"}, {"measurement": "Conjunctival haemorrhage: # Events", "result": 1}, {"measurement": "Conjunctival haemorrhage: Affected/At Risk (%)", "result": "1/16 (6.25%)"}, {"measurement": "Conjunctivitis: # Events", "result": 1}, {"measurement": "Conjunctivitis: Affected/At Risk (%)", "result": "1/16 (6.25%)"}, {"measurement": "Constipation: # Events", "result": 1}, {"measurement": "Constipation: Affected/At Risk (%)", "result": "1/16 (6.25%)"}, {"measurement": "Contrast media allergy: # Events", "result": 2}, {"measurement": "Contrast media allergy: Affected/At Risk (%)", "result": "2/16 (12.5%)"}, {"measurement": "Contusion: # Events", "result": 2}, {"measurement": "Contusion: Affected/At Risk (%)", "result": "2/16 (12.5%)"}, {"measurement": "Corneal abrasion: # Events", "result": 0}, {"measurement": "Corneal abrasion: Affected/At Risk (%)", "result": "0/16 (0%)"}, {"measurement": "Corneal infection: # Events", "result": 2}, {"measurement": "Corneal infection: Affected/At Risk (%)", "result": "1/16 (6.25%)"}, {"measurement": "Cough: # Events", "result": 5}, {"measurement": "Cough: Affected/At Risk (%)", "result": "4/16 (25%)"}, {"measurement": "Death, No. (%)", "result": 0}, {"measurement": "Decreased appetite: # Events", "result": 2}, {"measurement": "Decreased appetite: Affected/At Risk (%)", "result": "2/16 (12.5%)"}, {"measurement": "Dehydration: # Events", "result": 4}, {"measurement": "Dehydration: Affected/At Risk (%)", "result": "3/16 (18.75%)"}, {"measurement": "Depression: # Events", "result": 4}, {"measurement": "Depression: Affected/At Risk (%)", "result": "4/16 (25%)"}, {"measurement": "Diarrhoea: # Events", "result": 10}, {"measurement": "Diarrhoea: Affected/At Risk (%)", "result": "5/16 (31.25%)"}, {"measurement": "Dizziness: # Events", "result": 4}, {"measurement": "Dizziness: Affected/At Risk (%)", "result": "1/16 (6.25%)"}, {"measurement": "Drug eruption: # Events", "result": 1}, {"measurement": "Drug eruption: Affected/At Risk (%)", "result": "1/16 (6.25%)"}, {"measurement": "Drug-related AE, No. (%)", "result": "8 (50)"}, {"measurement": "Drug-related SAE, No. (%)", "result": 0}, {"measurement": "Dry eye: # Events", "result": 4}, {"measurement": "Dry eye: Affected/At Risk (%)", "result": "4/16 (25%)"}, {"measurement": "Dry skin: # Events", "result": 0}, {"measurement": "Dry skin: Affected/At Risk (%)", "result": "0/16 (0%)"}, {"measurement": "Dyspepsia: # Events", "result": 2}, {"measurement": "Dyspepsia: Affected/At Risk (%)", "result": "2/16 (12.5%)"}, {"measurement": "Dysphagia: # Events", "result": 4}, {"measurement": "Dysphagia: Affected/At Risk (%)", "result": "3/16 (18.75%)"}, {"measurement": "Dyspnoea exertional: # Events", "result": 0}, {"measurement": "Dyspnoea exertional: Affected/At Risk (%)", "result": "0/16 (0%)"}, {"measurement": "Dyspnoea: # Events", "result": 7}, {"measurement": "Dyspnoea: Affected/At Risk (%)", "result": "5/16 (31.25%)"}, {"measurement": "Embolism: # Events", "result": 0}, {"measurement": "Embolism: Affected/At Risk (%)", "result": "0/16 (0%)"}, {"measurement": "Enamel anomaly: # Events", "result": 1}, {"measurement": "Enamel anomaly: Affected/At Risk (%)", "result": "1/16 (6.25%)"}, {"measurement": "Epidural lipomatosis: # Events", "result": 0}, {"measurement": "Epidural lipomatosis: Affected/At Risk (%)", "result": "0/16 (0%)"}, {"measurement": "Epstein-Barr virus infection: # Events", "result": 0}, {"measurement": "Epstein-Barr virus infection: Affected/At Risk (%)", "result": "0/16 (0%)"}, {"measurement": "Erectile dysfunction: # Events", "result": 0}, {"measurement": "Erectile dysfunction: Affected/At Risk (%)", "result": "0/16 (0%)"}, {"measurement": "Eye irritation: # Events", "result": 0}, {"measurement": "Eye irritation: Affected/At Risk (%)", "result": "0/16 (0%)"}, {"measurement": "Eye pain: # Events", "result": 4}, {"measurement": "Eye pain: Affected/At Risk (%)", "result": "2/16 (12.5%)"}, {"measurement": "Eye pruritus: # Events", "result": 1}, {"measurement": "Eye pruritus: Affected/At Risk (%)", "result": "1/16 (6.25%)"}, {"measurement": "Fall: # Events", "result": 1}, {"measurement": "Fall: Affected/At Risk (%)", "result": "1/16 (6.25%)"}, {"measurement": "Fatigue: # Events", "result": 7}, {"measurement": "Fatigue: Affected/At Risk (%)", "result": "3/16 (18.75%)"}, {"measurement": "Flatulence: # Events", "result": 2}, {"measurement": "Flatulence: Affected/At Risk (%)", "result": "1/16 (6.25%)"}, {"measurement": "Flushing: # Events", "result": 1}, {"measurement": "Flushing: Affected/At Risk (%)", "result": "1/16 (6.25%)"}, {"measurement": "Fungal infection: # Events", "result": 0}, {"measurement": "Fungal infection: Affected/At Risk (%)", "result": "0/16 (0%)"}, {"measurement": "Gamma-glutamyltransferase increased: # Events", "result": 4}, {"measurement": "Gamma-glutamyltransferase increased: Affected/At Risk (%)", "result": "4/16 (25%)"}, {"measurement": "Gastric ulcer: # Events", "result": 1}, {"measurement": "Gastric ulcer: Affected/At Risk (%)", "result": "1/16 (6.25%)"}, {"measurement": "Gastrooesophageal reflux disease: # Events", "result": 1}, {"measurement": "Gastrooesophageal reflux disease: Affected/At Risk (%)", "result": "1/16 (6.25%)"}, {"measurement": "Generalised oedema: # Events", "result": 0}, {"measurement": "Generalised oedema: Affected/At Risk (%)", "result": "0/16 (0%)"}, {"measurement": "Genital infection fungal: # Events", "result": 1}, {"measurement": "Genital infection fungal: Affected/At Risk (%)", "result": "1/16 (6.25%)"}, {"measurement": "Glaucoma: # Events", "result": 1}, {"measurement": "Glucose urine present: # Events", "result": 0}, {"measurement": "Glucose urine present: Affected/At Risk (%)", "result": "0/16 (0%)"}, {"measurement": "Grade ≥3 AE, No. (%)", "result": "10 (63)"}, {"measurement": "Grade ≥3 ALT/AST increased, No. (%)", "result": "2 (13)"}, {"measurement": "Grade ≥3 Anemia, No. (%)", "result": "1 (6)"}, {"measurement": "Grade ≥3 Dyspnea, No. (%)", "result": "2 (13)"}, {"measurement": "Grade ≥3 Hyperglycemia, No. (%)", "result": 0}, {"measurement": "Grade ≥3 Hypoxia, No. (%)", "result": "1 (6)"}, {"measurement": "Grade ≥3 Lung infection or pneumonia, No. (%)", "result": "2 (13)"}, {"measurement": "Graft versus host disease in gastrointestinal tract: # Events", "result": 0}, {"measurement": "Graft versus host disease in gastrointestinal tract: Affected/At Risk (%)", "result": "0/16 (0%)"}, {"measurement": "Gynaecomastia: # Events", "result": 1}, {"measurement": "Gynaecomastia: Affected/At Risk (%)", "result": "1/16 (6.25%)"}, {"measurement": "Haematuria: # Events", "result": 1}, {"measurement": "Haematuria: Affected/At Risk (%)", "result": "1/16 (6.25%)"}, {"measurement": "Hair growth abnormal: # Events", "result": 0}, {"measurement": "Hair growth abnormal: Affected/At Risk (%)", "result": "0/16 (0%)"}, {"measurement": "Headache: # Events", "result": 3}, {"measurement": "Headache: Affected/At Risk (%)", "result": "3/16 (18.75%)"}, {"measurement": "Hodgkin's disease recurrent: # Events", "result": 0}, {"measurement": "Hodgkin's disease recurrent: Affected/At Risk (%)", "result": "0/16 (0%)"}, {"measurement": "Hordeolum: # Events", "result": 0}, {"measurement": "Hordeolum: Affected/At Risk (%)", "result": "0/16 (0%)"}, {"measurement": "Hot flush: # Events", "result": 0}, {"measurement": "Hot flush: Affected/At Risk (%)", "result": "0/16 (0%)"}, {"measurement": "Hyperglycemia: # Events", "result": 0}, {"measurement": "Hyperglycemia: Affected/At Risk (%)", "result": "0/16 (0%)"}, {"measurement": "Hyperhidrosis: # Events", "result": 1}, {"measurement": "Hyperhidrosis: Affected/At Risk (%)", "result": "1/16 (6.25%)"}, {"measurement": "Hyperkalaemia: # Events", "result": 2}, {"measurement": "Hyperkalaemia: Affected/At Risk (%)", "result": "2/16 (12.5%)"}, {"measurement": "Hypertension: # Events", "result": 5}, {"measurement": "Hypertension: Affected/At Risk (%)", "result": "2/16 (12.5%)"}, {"measurement": "Hyperthyroidism: # Events", "result": 1}, {"measurement": "Hyperthyroidism: Affected/At Risk (%)", "result": "1/16 (6.25%)"}, {"measurement": "Hypertriglyceridaemia: # Events", "result": 1}, {"measurement": "Hypertriglyceridaemia: Affected/At Risk (%)", "result": "1/16 (6.25%)"}, {"measurement": "Hyperuricaemia: # Events", "result": 2}, {"measurement": "Hyperuricaemia: Affected/At Risk (%)", "result": "1/16 (6.25%)"}, {"measurement": "Hypoaesthesia: # Events", "result": 0}, {"measurement": "Hypoaesthesia: Affected/At Risk (%)", "result": "0/16 (0%)"}, {"measurement": "Hypocalcaemia: # Events", "result": 4}, {"measurement": "Hypocalcaemia: Affected/At Risk (%)", "result": "1/16 (6.25%)"}, {"measurement": "Hypogonadism: # Events", "result": 0}, {"measurement": "Hypogonadism: Affected/At Risk (%)", "result": "0/16 (0%)"}, {"measurement": "Hypokalaemia: # Events", "result": 3}, {"measurement": "Hypokalaemia: Affected/At Risk (%)", "result": "2/16 (12.5%)"}, {"measurement": "Hypomagnesaemia: # Events", "result": 1}, {"measurement": "Hypomagnesaemia: Affected/At Risk (%)", "result": "1/16 (6.25%)"}, {"measurement": "Hyponatraemia: # Events", "result": 0}, {"measurement": "Hyponatraemia: Affected/At Risk (%)", "result": "0/16 (0%)"}, {"measurement": "Hypophosphataemia: # Events", "result": 1}, {"measurement": "Hypophosphataemia: Affected/At Risk (%)", "result": "1/16 (6.25%)"}, {"measurement": "Hypothermia: # Events", "result": 1}, {"measurement": "Hypothermia: Affected/At Risk (%)", "result": "1/16 (6.25%)"}, {"measurement": "Hypothyroidism: # Events", "result": 2}, {"measurement": "Hypothyroidism: Affected/At Risk (%)", "result": "1/16 (6.25%)"}, {"measurement": "Hypoxia: # Events", "result": 5}, {"measurement": "Hypoxia: Affected/At Risk (%)", "result": "2/16 (12.5%)"}, {"measurement": "Impaired healing: # Events", "result": 0}, {"measurement": "Impaired healing: Affected/At Risk (%)", "result": "0/16 (0%)"}, {"measurement": "Influenza like illness: # Events", "result": 2}, {"measurement": "Influenza like illness: Affected/At Risk (%)", "result": "1/16 (6.25%)"}, {"measurement": "Influenza: # Events", "result": 2}, {"measurement": "Influenza: Affected/At Risk (%)", "result": "1/16 (6.25%)"}, {"measurement": "Insomnia: # Events", "result": 0}, {"measurement": "Insomnia: Affected/At Risk (%)", "result": "0/16 (0%)"}, {"measurement": "Irritability: # Events", "result": 0}, {"measurement": "Irritability: Affected/At Risk (%)", "result": "0/16 (0%)"}, {"measurement": "Joint range of motion decreased: # Events", "result": 1}, {"measurement": "Joint range of motion decreased: Affected/At Risk (%)", "result": "1/16 (6.25%)"}, {"measurement": "Lacrimation increased: # Events", "result": 1}, {"measurement": "Lacrimation increased: Affected/At Risk (%)", "result": "1/16 (6.25%)"}, {"measurement": "Leukaemia recurrent: # Events", "result": 0}, {"measurement": "Leukaemia recurrent: Affected/At Risk (%)", "result": "0/16 (0%)"}, {"measurement": "Leukocytosis: # Events", "result": 0}, {"measurement": "Leukocytosis: Affected/At Risk (%)", "result": "0/16 (0%)"}, {"measurement": "Ligament sprain: # Events", "result": 0}, {"measurement": "Ligament sprain: Affected/At Risk (%)", "result": "0/16 (0%)"}, {"measurement": "Limb injury: # Events", "result": 0}, {"measurement": "Limb injury: Affected/At Risk (%)", "result": "0/16 (0%)"}, {"measurement": "Macular degeneration: # Events", "result": 1}]}]}
